According to the SangsterLogP compilation:

Assay: method code SF, from Rulke, H.; Friedel, A.; Martin, E.; Kottke, K.; Grafe, I.; Kuhmstedt, H. (1991). Investigations on the acidity ond partition properties of 1-phenyl-5-mercaptotetrazoles. Pharmazie, 46(6)456-457.

Row | SMILES | logP
1 | Cc1cccc(-n2nn[nH]c2=S)c1 | 2.29
2 | S=c1[nH]nnn1-c1cccc(Br)c1 | 2.39
3 | S=c1[nH]nnn1-c1ccc(Cl)c(Cl)c1 | 2.68
4 | S=c1[nH]nnn1-c1cccc(Cl)c1Cl | 2.41
5 | S=c1[nH]nnn1-c1ccc(Br)cc1 | 2.54
6 | S=c1[nH]nnn1-c1ccccc1I | 3.14
7 | S=c1[nH]nnn1-c1ccc2ccccc2c1 | 2.63
8 | S=c1[nH]nnn1-c1ccc(Cl)cc1 | 2.09
9 | S=c1[nH]nnn1-c1ccc(Cl)cc1Cl | 2.89
10 | S=c1[nH]nnn1-c1cccc(Cl)c1 | 2.34
11 | O=[N+]([O-])c1ccc(-n2nn[nH]c2=S)cc1 | 1.99
